Measurements as given in patent US9296734B2 (AMGEN INC., priority 2013, dated 2016).
pIC50: −log10 of the molar value. Where two headings read alike, the source gives them in different places.

Biological target: Cathepsin D (Cat D) (Homo sapiens (Human), UniProt P07339)
Test: In vitro enzymatic Cathepsin D (Cat D) FRET assay
Type: biochemical
Details: read-out: CatD IC50
Procedure: In Vitro Enzymatic Cathepsin D (Cat D) FRET (Fluorescence Resonance Energy Transfer) Assay
Recombinant Cat D was expressed in CHO cells. The assay buffer for CathepsinD is 0.05 M citrate pH 3.5, 10% DMSO final, 5 mM CHAPS. […] The assays are effectively started by the addition of different FRET substrates (20 nM for Cat D) and the combination is incubated for one hour. The FRET assay is terminated with by addition of Tris buffer, which raises the pH to neutrality, and the fluorescence is determined. The FRET substrate is a peptide with commercially available fluorophore and quencher, on opposite sides of the BACE cleavage site. […] Proteolytic cleavage of the FRET substrate releases quenching of fluorescence (Cat D excitation 500 nm and emission 580 nm).
In addition, the cathepsin D and cathepsin E assays are described in PCT publication WO2011069934.

[1] = average IC50, cathepsin D enzyme assay

Chain of Cathepsin D (Cat D) (P07339 65-412, species assumed): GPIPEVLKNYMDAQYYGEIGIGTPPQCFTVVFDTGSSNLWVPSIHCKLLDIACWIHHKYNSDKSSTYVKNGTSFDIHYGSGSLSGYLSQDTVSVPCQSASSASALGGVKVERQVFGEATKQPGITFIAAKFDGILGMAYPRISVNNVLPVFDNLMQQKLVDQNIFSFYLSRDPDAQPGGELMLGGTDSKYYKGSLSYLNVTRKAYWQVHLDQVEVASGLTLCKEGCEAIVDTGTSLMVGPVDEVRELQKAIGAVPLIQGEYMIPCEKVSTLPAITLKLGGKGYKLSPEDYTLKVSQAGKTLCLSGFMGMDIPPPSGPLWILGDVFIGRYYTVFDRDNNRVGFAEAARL

Structure (SMILES)	pIC50 [1]	pIC50 (average IC50)	other results
COc1ccc(C(=O)Nc2cc(C)c(F)c([C@]3(CF)C[C@@H](C(F)(F)F)OC(N)=N3)c2)nc1 [Example 229, N-(3-((4S,6S)-2-amino-4-(fluoromethyl)-6-(trifluoromethyl)-5,6-dihydro-4H-1,3-oxazin-4-yl)-4-fluoro-5-methylphenyl)-5-methoxypicolinamide]			pIC50 (average): 2.95
CC#CCOc1ccc(C(=O)Nc2cc(F)c(F)c([C@]3(CF)C[C@@H](C(F)(F)F)OC(N)=N3)c2)nc1 [Example 160, N-(3-((4S,6S)-2-amino-4-(fluoromethyl)-6-(trifluoromethyl)-5,6-dihydro-4H-1,3-oxazin-4-yl)-4,5-difluorophenyl)-5-(but-2-yn-1-yloxy)picolinamide]	< 3.40		
Cc1cc(OCC(F)(F)F)cnc1C(=O)Nc1cc(F)c(F)c([C@]2(C)C[C@@H](C(F)(F)F)OC(N)=N2)c1 [Example 194, N-(3-((4S,6S)-2-amino-4-methyl-6-(trifluoromethyl)-5,6-dihydro-4H-1,3-oxazin-4-yl)-4,5-difluorophenyl)-3-methyl-5-(2,2,2-trifluoroethoxy)picolinamide]			pIC50 (average): < 3.40
C#CCOC1CCN(C(=O)Nc2ccc(F)c([C@]3(C)C[C@@H](C(F)(F)F)OC(N)=N3)c2)CC1 [Example 120, N-(3-((4S,6S)-2-amino-4-methyl-6-(trifluoromethyl)-5,6-dihydro-4H-1,3-oxazin-4-yl)-4-fluorophenyl)-4-(prop-2-yn-1-yloxy)piperidine-1-carboxamide]	< 3.40		
CC#Cc1cncc(-c2ccc(F)c([C@]3(CF)C[C@@H](C(F)(F)F)OC(N)=N3)c2)c1 [Example 104, (4S,6S)-4-(2-fluoro-5-(5-(prop-1-yn-1-yl)pyridin-3-yl)phenyl)-4-(fluoromethyl)-6-(trifluoromethyl)-5,6-dihydro-4H-1,3-oxazin-2-amine]	3.66		
C[C@@]1(c2cc(NC(=O)c3ccc(C#N)cn3)cnc2F)C[C@@H](C(F)(F)F)OC(N)=N1 [Example 62, N-(5-((4S,6S)-2-amino-4-methyl-6-(trifluoromethyl)-5,6-dihydro-4H-1,3-oxazin-4-yl)-6-fluoropyridin-3-yl)-5-cyanopicolinamide]		< 3.40	
NC1=N[C@](CF)(c2cc(C#Cc3ccc(OC(F)F)cn3)ccc2F)C[C@@H](C(F)(F)F)O1 [Example 127, (4S,6S)-4-(5-((5-(difluoromethoxy)pyridin-2-yl)ethynyl)-2-fluorophenyl)-4-(fluoromethyl)-6-(trifluoromethyl)-5,6-dihydro-4H-1,3-oxazin-2-amine]			pIC50 (average): 3.22
NC1=N[C@](CF)(c2cc(Nc3ncc(F)c4cc(Cl)cnc34)ccc2F)C[C@@H](C(F)(F)F)O1 [Example 19, (4S,6S)-4-(5-((3-chloro-5-fluoro-1,7-naphthyridin-8-yl)amino)-2-fluorophenyl)-4-(fluoromethyl)-6-(trifluoromethyl)-5,6-dihydro-4H-1,3-oxazin-2-amine]	< 3.88		
Cc1cc(C#N)cnc1C(=O)Nc1ccc(F)c([C@]2(C)C[C@@H](C(F)(F)F)OC(N)=N2)n1 [Example 84, N-(6-((4S,6S)-2-amino-4-methyl-6-(trifluoromethyl)-5,6-dihydro-4H-1,3-oxazin-4-yl)-5-fluoropyridin-2-yl)-5-cyano-3-methylpicolinamide]		3.05	
NC1=N[C@](CF)(c2cc(Nc3ncnc4cc(Cl)cnc34)ccc2F)C[C@@H](C(F)(F)F)O1 [Example 11, (4S,6S)-4-(5-((7-chloropyrido[3,2-d]pyrimidin-4-yl)amino)-2-fluorophenyl)-4-(fluoromethyl)-6-(trifluoromethyl)-5,6-dihydro-4H-1,3-oxazin-2-amine]		4.26	
Cc1nc(OCC(F)(F)F)cnc1C(=O)Nc1cc(F)c(F)c([C@]2(C)C[C@@H](C(F)(F)F)OC(N)=N2)c1 [Example 197, N-(3-((4S,6S)-2-amino-4-methyl-6-(trifluoromethyl)-5,6-dihydro-4H-1,3-oxazin-4-yl)-4,5-difluorophenyl)-3-methyl-5-(2,2,2-trifluoroethoxy)pyrazine-2-carboxamide]			pIC50 (average): < 3.40
C#CCOc1cnc(C(=O)Nc2ccc(F)c([C@]3(CF)C[C@@H](C(F)(F)F)OC(N)=N3)c2)cn1 [Example 35, N-(3-((4S,6S)-2-amino-4-(fluoromethyl)-6-(trifluoromethyl)-5,6-dihydro-4H-1,3-oxazin-4-yl)-4-fluorophenyl)-5-(prop-2-yn-1-yloxy)pyrazine-2-carboxamide]	< 3.40		
COc1cnc(C(=O)Nc2ccc(F)c([C@]3(CF)C[C@@H](C(F)(F)F)OC(N)=N3)c2)c(C)n1 [Example 33, N-(3-((4S,6S)-2-amino-4-(fluoromethyl)-6-(trifluoromethyl)-5,6-dihydro-4H-1,3-oxazin-4-yl)-4-fluorophenyl)-5-methoxy-3-methylpyrazine-2-carboxamide]		< 3.40	
NC1=N[C@](CF)(c2cc(Oc3cc(C(F)(F)F)ccn3)ccc2F)C[C@@H](C(F)(F)F)O1 [Example 99, (4S,6S)-4-(2-Fluoro-5-((4-(trifluoromethyl)pyridin-2-yl)oxy)phenyl)-4-(fluoromethyl)-6-(trifluoromethyl)-5,6-dihydro-4H-1,3-oxazin-2-amine]		< 3.40	
COc1cnc2c(Nc3cc(F)c(F)c([C@]4(C)C[C@@H](C(F)(F)F)OC(N)=N4)c3)nccc2c1 [Example 179]	< 3.40		
COc1cnc2c(Nc3ccc(F)c([C@]4(CF)C[C@@H](C(F)(F)F)OC(N)=N4)c3)nccc2c1 [Example 12, (4S,6S)-4-(2-fluoro-5-((3-methoxy-1,7-naphthyridin-8-yl)amino)phenyl)-4-(fluoromethyl)-6-(trifluoromethyl)-5,6-dihydro-4H-1,3-oxazin-2-amine]		< 3.40	
N#Cc1cnc2c(Nc3cc(F)c(F)c([C@]4(CF)C[C@@H](C(F)(F)F)OC(N)=N4)c3)nccc2c1 [Example 162, 8-((3-((4S,6S)-2-amino-4-(fluoromethyl)-6-(trifluoromethyl)-5,6-dihydro-4H-1,3-oxazin-4-yl)-4,5-difluorophenyl)amino)-1,7-naphthyridine-3-carbonitrile]	< 3.40		
Cc1cc(NC(=O)c2ccc(F)cn2)cc([C@]2(CF)C[C@@H](C(F)(F)F)OC(N)=N2)c1F [Example 223, N-(3-((4S,6S)-2-amino-4-(fluoromethyl)-6-(trifluoromethyl)-5,6-dihydro-4H-1,3-oxazin-4-yl)-4-fluoro-5-methylphenyl)-5-fluoropicolinamide]			pIC50 (average): 3.08
COc1ccc(C(=O)Nc2ccc(F)c([C@]3(CF)C[C@@H](C(F)(F)F)OC(N)=N3)c2)nc1 [Example 49, N-(3-((4S,6S)-2-amino-4-(fluoromethyl)-6-(trifluoromethyl)-5,6-dihydro-4H-1,3-oxazin-4-yl)-4-fluorophenyl)-5-methoxypicolinamide]		< 3.40	
COc1cnc(C(=O)Nc2cc(F)c(F)c([C@]3(C)C[C@@H](C(F)(F)F)OC(N)=N3)c2)c(C)c1 [Example 202, N-(3-((4S,6S)-2-amino-4-methyl-6-(trifluoromethyl)-5,6-dihydro-4H-1,3-oxazin-4-yl)-4,5-difluorophenyl)-5-methoxy-3-methylpicolinamide]			pIC50 (average): 2.94
C[C@@]1(c2cc(NC(=O)N3CCc4ccccc4C3)ccc2F)C[C@@H](C(F)(F)F)OC(N)=N1 [Example 121, N-(3-((4S,6S)-2-amino-4-methyl-6-(trifluoromethyl)-5,6-dihydro-4H-1,3-oxazin-4-yl)-4-fluorophenyl)-3,4-dihydroisoquinoline-2(1H)-carboxamide]	2.44		
COc1cccnc1Nc1ccc(F)c([C@]2(CF)C[C@@H](C(F)(F)F)OC(N)=N2)c1 [Example 15, (4S,6S)-4-(2-fluoro-5-((3-methoxypyridin-2-yl)-amino)phenyl)-4-(fluoromethyl)-6-(trifluoromethyl)-5,6-dihydro-4H-1,3-oxazin-2-amine]	2.97		
NC1=N[C@](CF)(c2cc(Oc3ncccc3F)ccc2F)C[C@@H](C(F)(F)F)O1 [Example 94]		2.65	
NC1=N[C@](CF)(c2cc(NC(=O)c3ccc(Br)cn3)cc(F)c2F)C[C@@H](C(F)(F)F)O1 [Example 157, N-(3-((4S,6S)-2-amino-4-(fluoromethyl)-6-(trifluoromethyl)-5,6-dihydro-4H-1,3-oxazin-4-yl)-4,5-difluorophenyl)-5-bromopicolinamide]	< 3.40		
NC1=N[C@](CF)(c2cc(NC(=O)c3cnc(OCc4ncco4)cn3)ccc2F)C[C@@H](C(F)(F)F)O1 [Example 46, N-(3-((4S,6S)-2-amino-4-(fluoromethyl)-6-(trifluoromethyl)-5,6-dihydro-4H-1,3-oxazin-4-yl)-4-fluorophenyl)-5-(oxazol-2-ylmethoxy)pyrazine-2-carboxamide]	< 3.40		
C[C@@]1(c2nc(NC(=O)c3ncc(C#N)cc3Cl)ccc2F)C[C@@H](C(F)(F)F)OC(N)=N1 [Example 82, N-(6-((4S,6S)-2-amino-4-methyl-6-(trifluoromethyl)-5,6-dihydro-4H-1,3-oxazin-4-yl)-5-fluoropyridin-2-yl)-3-chloro-5-cyanopicolinamide]		< 3.40	
C[C@@]1(c2cc(NC(=O)c3ccc(Cl)cn3)cc(F)c2Cl)C[C@@H](C(F)(F)F)OC(N)=N1 [Example 236, N-(3-((4S,6S)-2-amino-4-methyl-6-(trifluoromethyl)-5,6-dihydro-4H-1,3-oxazin-4-yl)-4-chloro-5-fluorophenyl)-5-chloropicolinamide]			pIC50 (average): 3.39
